Data from paper PMC8597734 (Antimicrobial Agents and Chemotherapy, 2021).
In brackets after ≈: the same amount, converted by molar mass. Like-named read-outs stand apart in the source and are kept apart here.

Legend:
M. avium 11 = experiment: microbe, parasite or virus in culture; type: cell-based; conditions: Mycobacterium avium, 11, 96 h
[1] = tested on: M. intracellulare ATCC 13950; experiment: microbe, parasite or virus in culture; type: cell-based; conditions: Mycobacterium intracellulare, ATCC13950, 96 h
M. abscessus Bamboo [2] = experiment: microbe, parasite or virus in culture; type: cell-based, Mycobacterium abscessus; conditions: Mycobacteroides abscessus
[3] = tested on: M. abscessus subsp. abscessus ATCC 19977; experiment: microbe, parasite or virus in culture; type: cell-based, Mycobacterium abscessus; conditions: Mycobacteroides abscessus
[4] = tested on: M. abscessus subsp. massiliense CCUG 48898T; experiment: microbe, parasite or virus in culture; type: cell-based, Mycobacterium abscessus; conditions: Mycobacteroides abscessus, 72 h
[5] = tested on: M. abscessus subsp. bolletii CCUG 50184T; experiment: microbe, parasite or virus in culture; type: cell-based, Mycobacterium abscessus; conditions: Mycobacteroides abscessus, 72 h
[6] = tested on: M. abscessus subsp. abscessus M9; experiment: microbe, parasite or virus in culture; type: cell-based, Mycobacterium abscessus; conditions: Mycobacteroides abscessus, 72 h
[7] = tested on: M. abscessus subsp. abscessus M199; experiment: microbe, parasite or virus in culture; type: cell-based, Mycobacterium abscessus; conditions: Mycobacteroides abscessus, 72 h
[8] = tested on: M. abscessus subsp. abscessus M337; experiment: microbe, parasite or virus in culture; type: cell-based, Mycobacterium abscessus; conditions: Mycobacteroides abscessus, 72 h
[9] = tested on: M. abscessus subsp. abscessus M404; experiment: microbe, parasite or virus in culture; type: cell-based, Mycobacterium abscessus; conditions: Mycobacteroides abscessus, 72 h
[10] = tested on: M. abscessus subsp. abscessus M422; experiment: microbe, parasite or virus in culture; type: cell-based, Mycobacterium abscessus; conditions: Mycobacteroides abscessus, 72 h
[11] = tested on: M. abscessus subsp. bolletii M232; experiment: microbe, parasite or virus in culture; type: cell-based, Mycobacterium abscessus; conditions: Mycobacteroides abscessus, 72 h
[12] = tested on: M. abscessus subsp. bolletii M506; experiment: microbe, parasite or virus in culture; type: cell-based, Mycobacterium abscessus; conditions: Mycobacteroides abscessus, 72 h
[13] = tested on: M. abscessus subsp. massiliense M111; experiment: microbe, parasite or virus in culture; type: cell-based, Mycobacterium abscessus; conditions: Mycobacteroides abscessus, 72 h
[14] = tested on: M. abscessus subsp. abscessus K21; experiment: microbe, parasite or virus in culture; type: cell-based, Mycobacterium abscessus; conditions: Mycobacteroides abscessus, 72 h
M. abscessus Bamboo [15] = experiment: MIC and MBC determination in culture tubes (planktonic); type: cell-based, Mycobacterium abscessus; conditions: for MBC: 10-fold reduction in CFU/ml vs day 0; for MIC: 48 h, day 2
[16] = tested on: M. abscessus Bamboo biofilms; experiment: Biofilm growth inhibition assay (biofilm MIC and MBC); type: cell-based, Mycobacterium abscessus; conditions: Mycobacteroides abscessus, Biofilm, M. abscessus Bamboo; for MBC: 10-fold reduction of CFU/peg vs 24 h; for MIC: 90% reduction of CFU/peg relative to drug-free biofilm growth, 48 h
Method: The biofilm growth inhibition assay was performed as previously described ([52]). Innovotech MBEC 96-well Biofilm Assay Plates (Innovotech 19111, Edmonton, AB, Alberta, Canada) were used, and the supplier’s manual was followed with minor modifications. Midlog phase M. abscessus Bamboo precultures (OD600 = 0.4–0.6) were spun down at 3,200 × g for 10 min at 25°C and washed with 7H9 medium without Tween 80 (7H9nt). Bacteria were resuspended into 25 ml 7H9nt to an OD600 = 0.0125 (1.0 × 10^6 CFU/ml). 150 μl of bacteria suspension was dispensed into each well of MBEC multititer plates and the polystyrene protrusions (pegs) of the MBEC lid were inserted into the culture-containing wells for 24 h at 37°C on an orbital shaker at 110 rpm to allow attachment of the bacteria to the pegs and initiation of biofilm growth. The lids with the pegs (now with 1-day-old biofilms) were transferred to new MBEC multititer plates containing 150 μl of fresh 7H9nt medium per well without bacteria (0 h time point). After that, the lids with biofilm-laden pegs were transferred once a day to a new multititer plate containing fresh 7H9nt medium. To measure growth of the biofilm formed on the peg, the pegs were washed in 200 μl of 7H9nt medium before they were aseptically removed and placed in 1.7 ml microcentrifuge tubes (VWR 87003-294, Rador, PA, United States) containing 500 μl PBS/Tween 80. The microcentrifuge tubes were vigorously vortexed at 2,000 rpm for 90 s at 25°C to detach the bacteria from the pegs before samples were serially diluted and plated for the determination of CFU/peg. […] The average drug-free biofilm growth was calculated by subtracting the average 24 h CFU/peg value from the average 72 h CFU/peg value for the untreated control pegs. The biofilm MIC was defined as the lowest drug concentration that reduced the CFU/peg by 90% relative to the average drug-free biofilm growth.

[17] = tested on: anaerobic, nonreplicating M. abscessus Bamboo; experiment: MBC determination under anaerobic conditions; type: cell-based, Mycobacterium abscessus; conditions: Mycobacteroides abscessus, 48 h drug exposure
[18] = tested on: nutrient-starved, nonreplicating M. abscessus Bamboo; experiment: MBC determination under nutrient-starved conditions; type: cell-based, Mycobacterium abscessus; conditions: Mycobacteroides abscessus, 48 h drug exposure
Method: The determination of drug bactericidal activity against nutrient-starved M. abscessus cultures was performed as previously described ([52]). […] Washed culture was then diluted with PBS/Tyloxapol to OD600 = 0.2 (1.8 × 10^7 CFU/ml). […] Appropriate concentrations of drugs up to 100 μM were added to the tubes prior to incubation at 37°C on a tilted rack in an orbital shaker at 220 rpm.

[19] = tested on: M. abscessus Bamboo RM1 (GyrA M129K); experiment: microbe, parasite or virus in culture; type: cell-based, Mycobacterium abscessus; conditions: Mycobacteroides abscessus
[20] = tested on: M. abscessus Bamboo RM2 (GyrA D91N); experiment: microbe, parasite or virus in culture; type: cell-based, Mycobacterium abscessus; conditions: Mycobacteroides abscessus
[21] = tested on: M. abscessus Bamboo RM3 (GyrA D91N); experiment: microbe, parasite or virus in culture; type: cell-based, Mycobacterium abscessus; conditions: Mycobacteroides abscessus
[22] = tested on: M. abscessus Bamboo RM4 (GyrA D91G); experiment: microbe, parasite or virus in culture; type: cell-based, Mycobacterium abscessus; conditions: Mycobacteroides abscessus
[23] = tested on: M. abscessus ATCC 19977 MXF_R1 (GyrA D96Y); experiment: microbe, parasite or virus in culture; type: cell-based, Mycobacterium abscessus
[24] = tested on: M. abscessus ATCC 19977 MXF_R2 (GyrA D96N); experiment: microbe, parasite or virus in culture; type: cell-based, Mycobacterium abscessus
[25] = tested on: M. abscessus ATCC 19977 MXF_R3 (GyrA D96G); experiment: microbe, parasite or virus in culture; type: cell-based, Mycobacterium abscessus
[26] = tested on: M. abscessus subsp. abscessus K21; experiment: M. abscessus mouse infection model; type: in vivo, Mycobacterium abscessus; conditions: NOD SCID mice, intranasal infection
Method: In vivo efficacy determinations were carried out as described previously, using 8-week-old female NOD.CB17-Prkdc^scid/NCrCrl (NOD SCID) mice (Charles River Laboratories) and the M. abscessus subsp. abscessus K21 strain ([48]). Briefly, anesthetized animals were infected by intranasal delivery of ∼10^6 CFU of M. abscessus subsp. abscessus K21. Acute infection was achieved within 1 day. Drugs or the vehicle control was administered to NOD SCID mice once daily for 10 consecutive days by oral gavage, starting from 1 day postinfection. Clarithromycin was formulated in 0.4% methyl cellulose–sterile water and administered at a dose of 250 mg/kg. […] EC/11716 was formulated in 0.4% methyl cellulose–sterile water and administered at 400 mg/kg. All mice were euthanized 24 h after the last dose (11 days postinfection), and their lungs and spleen were aseptically removed prior to homogenization. The bacterial load in these organs was determined by plating serial dilutions of the organ homogenates onto Middlebrook 7H11 agar (BD Difco) supplemented with 0.2% (vol/vol) glycerol and 10% (vol/vol) OADC. The agar plates were incubated for 5 days at 37°C prior to counting of colonies. All studies were conducted in accordance with the GSK Policy on the Care, Welfare and Treatment of Laboratory Animals and were reviewed the Institutional Animal Care and Use Committee either at GSK or by the ethical review process at the institution where the work was performed. All experiments involving live animals were approved by the Institutional Animal Care and Use Committee of the Center for Discovery and Innovation, Hackensack Meridian Health.

[27] = tested on: M. tuberculosis H37Rv ATCC 27294; experiment: microbe, parasite or virus in culture; type: cell-based; conditions: Mycobacterium tuberculosis, 168 h
[28] = Mycobacteroides abscessus, ATCC19977

Row | Compound | MIC (M. avium 11) [µM] | MIC [1] [µM] | MIC (M. abscessus Bamboo [2]) [µM] | MIC (M. abscessus Bamboo [2]; 72 h) [µM] | MIC ([3]; ATCC19977) [µM] | MIC ([3]; ATCC19977, 72 h) [µM] | MIC [4] [µM] | MIC [5] [µM] | MIC [6] [µM] | MIC [7] [µM] | MIC [8] [µM] | MIC [9] [µM] | MIC [10] [µM] | MIC [11] [µM] | MIC [12] [µM] | MIC [13] [µM] | MIC [14] [µM] | MBC (M. abscessus Bamboo [15]; Mycobacteroides abscessus, 0 h) [µM] | MIC (M. abscessus Bamboo [15]; Mycobacteroides abscessus) [µM] | MBC [16] [µM] | other results
1 | CC[C@H]1OC(=O)[C@H](C)[C@@H](O[C@H]2C[C@@](C)(OC)[C@@H](O)[C@H](C)O2)[C@H](C)[C@@H](O[C@@H]2O[C@H](C)C[C@H](N(C)C)[C@H]2O)[C@](C)(OC)C[C@@H](C)C(=O)[C@H](C)[C@@H](O)[C@]1(C)O [CLR, clarithromycin] | 0.3 (≈ 0.224 µg/mL) | 0.15 (≈ 0.112 µg/mL) | 0.33 (≈ 0.247 µg/mL) | 0.23 (≈ 0.172 µg/mL) | 1.2 (≈ 0.898 µg/mL) | 0.9 (≈ 0.673 µg/mL) | 0.19 (≈ 0.142 µg/mL) | 2.5 (≈ 1.87 µg/mL) | 0.73 (≈ 0.546 µg/mL) | 2.7 (≈ 2.02 µg/mL) | 0.9 (≈ 0.673 µg/mL) | 0.2 (≈ 0.15 µg/mL) | 0.65 (≈ 0.486 µg/mL) | 0.95 (≈ 0.711 µg/mL) | 0.28 (≈ 0.209 µg/mL) | 0.24 (≈ 0.18 µg/mL) | 0.4 (≈ 0.299 µg/mL) | > 100 | 0.28 (≈ 0.209 µg/mL) | > 100 | MBC (M. abscessus Bamboo [15]): >100 µM; MIC [16]: 1.6 µM (≈ 1.2 µg/mL); MBC [17]: > 100 µM; MBC [18]: > 100 µM; MIC [19]: 0.24 µM (≈ 0.18 µg/mL); MIC [20]: 0.29 µM (≈ 0.217 µg/mL); MIC [21]: 0.27 µM (≈ 0.202 µg/mL); MIC [22]: 0.26 µM (≈ 0.194 µg/mL); MIC [23, 28]: 1.5 µM (≈ 1.12 µg/mL); MIC [24, 28]: 0.73 µM (≈ 0.546 µg/mL); MIC [25, 28]: 0.34 µM (≈ 0.254 µg/mL); reduction in lung CFU ([26]; 250 mg/kg oral once daily for 10 days, EC/11716 reduction stated on par with it): ~1 log
2 | COc1c(N2C[C@@H]3CCCN[C@@H]3C2)c(F)cc2c(=O)c(C(=O)O)cn(C3CC3)c12 [MXF, moxifloxacin] | 1.3 (≈ 0.522 µg/mL) | 0.4 (≈ 0.161 µg/mL) | 5.4 (≈ 2.17 µg/mL) | 4.6 (≈ 1.85 µg/mL) | 3.6 (≈ 1.45 µg/mL) | 3.6 (≈ 1.45 µg/mL) | 8 (≈ 3.21 µg/mL) | 6.3 (≈ 2.53 µg/mL) | 2.9 (≈ 1.16 µg/mL) | 4.8 (≈ 1.93 µg/mL) | 2.9 (≈ 1.16 µg/mL) | 5 (≈ 2.01 µg/mL) | 2.7 (≈ 1.08 µg/mL) | 3.2 (≈ 1.28 µg/mL) | 7.1 (≈ 2.85 µg/mL) | 6.7 (≈ 2.69 µg/mL) | 7.3 (≈ 2.93 µg/mL) | 3.1 (≈ 1.24 µg/mL) | 1.9 (≈ 0.763 µg/mL) | 25 (≈ 10 µg/mL) | MIC [27]: 0.6 µM (≈ 0.241 µg/mL); MIC [16]: 6 µM (≈ 2.41 µg/mL); MIC [19]: 20 µM (≈ 8.03 µg/mL); MIC [20]: 42 µM (≈ 16.9 µg/mL); MIC [21]: 47 µM (≈ 18.9 µg/mL); MIC [22]: 27 µM (≈ 10.8 µg/mL); MIC [23]: >100 µM; MIC [23, 28]: > 50 µM; MIC [24]: 68 µM (≈ 27.3 µg/mL); MIC [24, 28]: > 50 µM; MIC [25]: 54 µM (≈ 21.7 µg/mL); MIC [25, 28]: > 50 µM; reduction in lung CFU burden ([26]; 200 mg/kg oral once daily for 10 days, not statistically significant): 0.6 log
3 | CO[C@H]1/C=C/O[C@@]2(C)Oc3c(C)c(O)c4c(O)c(c(/C=N/N5CCN(C)CC5)c(O)c4c3C2=O)NC(=O)/C(C)=C\C=C\[C@H](C)[C@H](O)[C@@H](C)[C@@H](O)[C@@H](C)[C@H](OC(C)=O)[C@@H]1C [rifampin] | – | – | – | – | – | – | – | – | – | – | – | – | – | – | – | – | – | – | – | – | MIC [27]: 0.66 µM (≈ 0.543 µg/mL)
